Data as given in ChEMBL document CHEMBL1201862, “PubChem BioAssay data set” (2004).
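Five compound concentrations were applied to cells in 96-well plates for 48 hours; endpoints were derived by simple linear interpolation of the resulting dose-response curve. The concentration for 50% growth inhibition is given as GI50.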 The source made the active and inactive calls. Cut-off read from the data, not from the text of the source: active = GI50 up to about 1.1 µM and inactive = higher.

Columns and labels:
Experiment in all cases: NCI tumour cell line growth inhibition, 48 h
M19-MEL = test system: M19-MEL
SNB-78 = test system: SNB-78
HOP-18 = test system: HOP-18
LXFL 529 = test system: LXFL 529
DLD-1 = test system: DLD-1
XF498 = test system: XF498
NCI/ADR-RES = test system: NCI/ADR-RES
BT-549 = test system: BT-549
RXF 631 = test system: RXF 631

Measured: GI50

OCCCCCNc1ccnc2cc(Cl)ccc12
inactive: M19-MEL > 100 µM | SNB-78 > 100 µM | HOP-18 > 100 µM | LXFL 529 > 100 µM | DLD-1 > 100 µM | XF498 > 100 µM

CCN1C(=O)/C(=C\c2coc3ccccc3c2=O)SC1=S
inactive: M19-MEL > 100 µM | SNB-78 56.8 µM | HOP-18 80.4 µM | LXFL 529 > 100 µM | DLD-1 > 100 µM | XF498 40 µM

Cc1c2ncccc2c(C)c2c1[nH]c1ccccc12
inactive: M19-MEL 13.4 µM | SNB-78 14.6 µM | HOP-18 14.2 µM | LXFL 529 11 µM | DLD-1 10.1 µM | XF498 12.8 µM

CS(=O)(=O)c1cc(=O)c2ccccc2s1
inactive: M19-MEL 7.69 µM | NCI/ADR-RES 18 µM | SNB-78 4.99 µM | BT-549 19.3 µM | HOP-18 3.85 µM | RXF 631 11 µM | LXFL 529 1.63 µM | DLD-1 1.91 µM | XF498 2.14 µM

CN(C)CC1CCCC/C1=N/OC(=O)c1ccc(Cl)c(Cl)c1 (stereo not given)
inactive: M19-MEL > 100 µM | HOP-18 > 100 µM | RXF 631 > 100 µM | LXFL 529 > 100 µM | DLD-1 > 100 µM

CCCCCCCCCCCCCCCCc1c(C(=O)OC)[nH]c(=S)[nH]c1=O
inactive: M19-MEL > 50 µM | SNB-78 > 50 µM | HOP-18 > 50 µM | RXF 631 > 50 µM | LXFL 529 > 50 µM | DLD-1 > 50 µM | XF498 > 50 µM

O=Cc1cc2sc(C=O)cc2s1
inactive: M19-MEL > 100 µM | SNB-78 > 100 µM | RXF 631 > 100 µM | LXFL 529 > 100 µM | DLD-1 > 100 µM | XF498 > 100 µM

CC1=NC(C(C)C)C(=O)O1 (stereo not given)
inactive: M19-MEL > 100 µM | SNB-78 > 100 µM | HOP-18 > 100 µM | RXF 631 > 100 µM | LXFL 529 > 100 µM | DLD-1 56.2 µM | XF498 > 100 µM

O=C(O)C(CS)Nc1c2ccccc2[n+]([O-])c2ccccc12 (stereo not given)
inactive: M19-MEL > 100 µM | SNB-78 > 100 µM | HOP-18 > 100 µM | RXF 631 > 100 µM | LXFL 529 53.7 µM | DLD-1 95.9 µM

CN(C)CC(=O)N1CCc2c([nH]c3ccccc23)C1c1cccnc1 (stereo not given)
inactive: M19-MEL > 100 µM | SNB-78 > 100 µM | HOP-18 > 100 µM | RXF 631 > 100 µM | LXFL 529 > 100 µM | DLD-1 > 100 µM | XF498 > 100 µM

CCCCCCCCC(=O)CCCCCCCCC(=O)O
inactive: M19-MEL 47.5 µM | SNB-78 > 100 µM | HOP-18 19.2 µM | RXF 631 21 µM | LXFL 529 27 µM | DLD-1 20.1 µM | XF498 34.2 µM

CCCCCCCC/C=C1\CCC(CN(C)C)C1=O (stereo not given)
inactive: M19-MEL 3.36 µM | SNB-78 7.45 µM | HOP-18 19.5 µM | RXF 631 5.64 µM | LXFL 529 1.61 µM | DLD-1 2.16 µM | XF498 6.22 µM

O=S(O)CCCCSSCc1ccccc1CSSCCCCS(=O)O
inactive: M19-MEL 4.65 µM | HOP-18 14.7 µM | RXF 631 23.1 µM | LXFL 529 11.4 µM | DLD-1 24.6 µM | XF498 12 µM

C=C[C@@]1(C)CCC2(O)C(CCC3C2(C)CCC[C@@]3(C)COC(=O)CC(=O)OC)C1 (stereo not given in full)
inactive: SNB-78 26.1 µM | RXF 631 19.1 µM | LXFL 529 17.3 µM | DLD-1 17.4 µM | XF498 21.6 µM
